The record followed here is patent publication US4492704A, “Quinoline quinones and anti-asthmatic use thereof” (Eli Lilly and Company, priority 1982, dated 1985).

As usually defined, the inhibition is the change of the read-out against control, counted positive when it falls. Broadly, the pKa is the negative logarithm of the acid dissociation constant. A low value points to a stronger acid or weaker base.

Where two headings read alike, the source gives them in different places.

The test system of data set [1] is SRS-A release. The data set is described as follows: Inhibition of SRS-A (leukotriene) release from ovalbumin-challenged sensitized guinea pig lung fragments. The format is cell-based. The note with it: for inhibition at 10 µM / inhibition at 1 µM / inhibition at 3 µM / inhibition at 30 µM: Cavia porcellus, read-out: Percent Inhibition of SRS-A Release. As for the experimental part:
Male, Hartley guinea pigs, usually 1-2 weeks old were sensitized with respect to ovalbumin by intraperitoneal administration of 0.15 ml hyperimmune serum obtained from guinea pigs actively sensitized against ovalbumin. […] Poorly perfused and bloody areas were discarded. Normal lung was cut into 1 mm cubes with a McIlwain tissue chopper, washed with Krebs' solution and divided into 400 mg aliquots. The fragmented tissue was then incubated at 37° C. for 15 minutes in Krebs' solution containing indomethacin to optimize SRS-A release and an appropriate concentration of experimental drug. Antigen (ovalbumin) was then added to make a final concentration of 1×10^-5 g/ml. Fifteen minutes later, the incubation medium was decanted and centrifuged at 3,000 g at 4° C. for 5 minutes. […] Release of SRS-A in the presence of an experimental drug was compared to a control sample and the results expressed as percent inhibition of SRS-A release.

Data set [2] is described as follows: pKa using 66% aqueous dimethylformamide solution. The format is physicochemical. Here is the method:
The precipitate was then dissolved in a solution of 1 L of water and 50 g of sodium hydroxide and then heated to about 60° for about ten minutes. Slowly, 50 g of sodium dithionite were added with stirring. After the addition, the reaction solution was kept at about 60° for about three hours. An orange precipitate was formed and the reaction was then allowed to cool to room temperature and sodium chloride was added. The orange solid, which was filtered and then dried, weighed 19 g (70% yield).
The preparation of 2-methyl-5-amino-8-hydroxyquinoline follows the procedure outlined in Example 1, except 15.9 g of 2-methyl-8-hydroxyquinoline were used as the starting material. […] The mass spectrum indicated the expected molecular ion at m/e=174. The pKa was 5.00, using 66% aqueous dimethylformamide solution and the apparent molecular weight was 188.

The mark [3] stands for this setting: 1 × 10^-5 M, sensitized guinea pig lung fragments, ovalbumin challenge, indomethacin present.
Where [4] appears, read: 1 × 10^-6 M, sensitized guinea pig lung fragments, ovalbumin challenge, indomethacin present.
Where [5] appears, read: 3 × 10^-6 M, sensitized guinea pig lung fragments, ovalbumin challenge, indomethacin present.
Setting [6] is: 3 × 10^-5 M, sensitized guinea pig lung fragments, ovalbumin challenge, indomethacin present.

Regarding `O=C1C(Nc2cccc(Cl)c2)=CC(=O)c2ncccc21` [Example 22, 6-(3-chloroanilino)quinoline-5,8-quinone], the inhibition at 10 µM in data set [1] (setting [3]) amounted to 71%.

Regarding `CN(C1=CC(=O)c2ncccc2C1=O)c1ccccc1` [6-(N--methylanilino)quinoline-5,8-quinone], the inhibition at 10 µM in data set [1] (setting [3]) is 80%. Besides, the inhibition at 1 µM in data set [1] (setting [4]) came to 16%. Also, the inhibition at 3 µM in data set [1] (setting [5]) stood at 27%.

As for `CCN(C1=CC(=O)c2ncccc2C1=O)c1ccccc1` [Example 15, 6-(N--ethylanilino)quinoline-5,8-quinone], the inhibition at 10 µM in data set [1] (setting [3]) amounted to 53%.

Consider `O=C1C(Nc2cccc(Br)c2)=CC(=O)c2ncccc21` [Example 23, 6-(3-bromoanilino)quinoline-5,8-quinone], for which, in data set [1] (setting [3]), the inhibition at 10 µM was 45%.

On to `CCCN(C)C1=CC(=O)c2ncccc2C1=O` [6-methylpropylaminoquinoline-5,8-quinone], for which the “Percent Inhibition of SRS-A Release” value in data set [1] (setting [6]) is given as 61%.

Turning to `Cc1ccccc1NC1=CC(=O)c2ncccc2C1=O` [6-(2-methylanilino)quinoline-5,8-quinone], in data set [1] (setting [6]), the inhibition at 30 µM was found to be 80%. In addition, the inhibition at 3 µM in data set [1] (setting [5]) is 17%.

`CSc1cccc(NC2=CC(=O)c3ncccc3C2=O)c1` [6-(3-methylthioanilino)quinoline-5,8-quinone]: the inhibition at 30 µM in data set [1] (setting [6]) came to 55%. Also, in data set [1] (setting [5]), the inhibition at 3 µM came out at 16%.

`O=C1C(Nc2cccc3c2CCCC3)=CC(=O)c2ncccc21` [Example 12, 6-(1-amino-5,6,7,8-tetrahydronaphthalene)quinoline-5,8-quinone]: the inhibition at 10 µM in data set [1] (setting [3]) is 23%.

`CNC1=CC(=O)c2ncccc2C1=O` [6-methylaminoquinoline-5,8-quinone]: the inhibition at 10 µM in data set [1] (setting [3]) stood at 28%. Further, the inhibition at 30 µM in data set [1] (setting [6]) was found to be 51%.

With `O=C1C(Nc2cccc(F)c2)=CC(=O)c2ncccc21` [Example 19, 6-(3-flouroanilino)quinoline-5,8-quinone], in data set [1] (setting [3]), the inhibition at 10 µM was determined as 76%. Also, the inhibition at 1 µM in data set [1] (setting [4]) was found to be 13%. Further, the inhibition at 30 µM in data set [1] (setting [6]) stood at 94%.

Turning to `Cc1ccc2c(N)ccc(O)c2n1` [Example 2, 2-methyl-5-amino-8-hydroxyquinoline], the pKa in data set [2] was determined as 5.

For `O=C1C(N2CCOCC2)=CC(=O)c2ncccc21` [6-morpholinylquinoline-5,8-quinone], the inhibition at 10 µM in data set [1] (setting [3]) came to 28%. The inhibition at 30 µM in data set [1] (setting [6]) was 63%.

On to `CN(C)CCNC1=CC(=O)c2ncccc2C1=O` [Example 18, 6-dimethylaminoethylaminoquinoline-5,8-quinone], for which the inhibition at 10 µM in data set [1] (setting [3]) was determined as 40%.

For the molecule `O=C1C(Nc2ccccc2F)=CC(=O)c2ncccc21` [Example 17, 6-(2-flouroanilino)quinoline-5,8-quinone], the inhibition at 10 µM in data set [1] (setting [3]) amounted to 71%. The inhibition at 1 µM in data set [1] (setting [4]) amounted to 0%.

`O=C1C(N2CCCCC2)=CC(=O)c2ncccc21` [6-piperidinylquinoline-5,8-quinone]: the inhibition at 10 µM in data set [1] (setting [3]) came to 68%.

For “6-(flouroanilino)quinoline-5,8-quinone [Example 16]”, in data set [1] (setting [3]), the “Percent Inhibition of SRS-A Release” value worked out at 39%.

Take `C=CCNC1=CC(=O)c2ncccc2C1=O` [6-(2-propenyl)aminoquinoline-5,8-quinone]: the inhibition at 10 µM in data set [1] (setting [3]) was found to be 53%.

`CC(C)NC1=CC(=O)c2ncccc2C1=O` [6-isopropylaminoquinoline-5,8-quinone]: the inhibition at 30 µM in data set [1] (setting [6]) worked out at 28%.

Consider `O=C1C(Nc2ccc(O)cc2)=CC(=O)c2ncccc21` [Example 13, 6-(4-hydroxyanilino)quinoline-5,8-quinone], for which the inhibition at 10 µM in data set [1] (setting [3]) worked out at 58%.

In the case of `O=C1C(Nc2ccc(Cl)cc2)=CC(=O)c2ncccc21` [6-(4-chloroanilino)quinoline-5,8-quinone], in data set [1] (setting [3]), the inhibition at 10 µM is 23%. Moreover, in data set [1] (setting [6]), the inhibition at 30 µM amounted to 68%.

Take `CCCN(C1=CC(=O)c2ncccc2C1=O)c1ccccc1` [6-(N--propylanilino)quinoline-5,8-quinone]: the inhibition at 10 µM in data set [1] (setting [3]) worked out at 28%. In addition, the inhibition at 30 µM in data set [1] (setting [6]) was determined as 39%.

For the molecule `O=C1C(NC2CCCCC2)=CC(=O)c2ncccc21` [Example 14, 6-cyclohexylaminoquinoline-5,8-quinone], the inhibition at 10 µM in data set [1] (setting [3]) turned out to be 53%. Also, the inhibition at 1 µM in data set [1] (setting [4]) came to 0%.

As to `O=C1C(Nc2ccccc2C(F)(F)F)=CC(=O)c2ncccc21` [6-(2-trifluoromethylanilino)quinoline-5,8-quinone], in data set [1] (setting [3]), the inhibition at 10 µM is 52%.

`COc1ccc(NC2=CC(=O)c3ncccc3C2=O)cc1` [Example 8, 6-(4-methoxyanilino)quinoline-5,8-quinone]: the inhibition at 10 µM in data set [1] (setting [3]) amounted to 32%.

For `O=C1C(Nc2ccccc2)=CC(=O)c2ncccc21` [7,10, 6-anilinoquinoline-5,8-quinone], in data set [1], the inhibition at 1 µM was 28%, the inhibition at 3 µM amounted to 54%, the inhibition at 10 µM was determined as 79% and the inhibition at 30 µM worked out at 86%.

In the case of `COc1ccccc1NC1=CC(=O)c2ncccc2C1=O` [6-(2-methoxyanilino)quinoline-5,8-quinone], in data set [1] (setting [6]), the inhibition at 30 µM turned out to be 38%. Moreover, the inhibition at 3 µM in data set [1] (setting [5]) amounted to 0%.

As to `O=C1C(Nc2cccc(C(F)(F)F)c2)=CC(=O)c2ncccc21` [Example 24, 6-(3-triflouromethylanilino)quinoline-5,8-quinone], the inhibition at 10 µM in data set [1] (setting [3]) amounted to 53%.

`COc1cc(N)c2ncccc2c1N` [Example 1, 5,8-diamino-6-methoxyquinoline] came in with a pKa in data set [2] of 5.08.

With `C=CCN(C1=CC(=O)c2ncccc2C1=O)c1ccccc1` [6-[N--(2-propenyl)anilino]quinoline-5,8-quinone], the inhibition at 10 µM in data set [1] (setting [3]) was 41%.

Consider `O=C1C(NC2CC2)=CC(=O)c2ncccc21` [6-cyclopropylaminoquinoline-5,8-quinone], for which the inhibition at 30 µM in data set [1] (setting [6]) was found to be 48%.

Regarding `O=C1C(Nc2ccccc2Cl)=CC(=O)c2ncccc21` [6-(2-chloroanilino)quinoline-5,8-quinone], the inhibition at 1 µM in data set [1] (setting [4]) is 24%. In addition, in data set [1] (setting [6]), the inhibition at 30 µM turned out to be 78%. The inhibition at 3 µM in data set [1] (setting [5]) came out at 23%.

With `CC(=O)c1cccc(NC2=CC(=O)c3ncccc3C2=O)c1` [Example 25, 6-(3-acetylanilino)quinoline-5,8-quinone], in data set [1] (setting [5]), the inhibition at 3 µM was found to be 36%.

For the molecule `Cc1ccc2c(n1)C(=O)C=C(Nc1ccccc1)C2=O` [Example 11, 2-methyl-6-anilinoquinoline-5,8-quinone], in data set [1] (setting [3]), the inhibition at 10 µM worked out at 55%.

Consider `Cc1cccc(NC2=CC(=O)c3ncccc3C2=O)c1` [Example 20, 6-(3-methylanilino)quinoline-5,8-quinone], for which the inhibition at 10 µM in data set [1] (setting [3]) turned out to be 69%.

With `COc1cccc(NC2=CC(=O)c3ncccc3C2=O)c1` [Example 21, 6-(3-methoxyanilino)quinoline-5,8-quinone], the inhibition at 10 µM in data set [1] (setting [3]) is 72%.

Take `O=C1C(Nc2ccc([N+](=O)[O-])cc2)=CC(=O)c2ncccc21` [Example 9, 6-(4-nitroanilino)quinoline-5,8-quinone]: the inhibition at 10 µM in data set [1] (setting [3]) amounted to 41%.
